Measured values as given in patent US20100227381A1, “ENHANCED BIODEGRADATION OF NON-AQUEOUS PHASE LIQUIDS USING SURFACTANT ENHANCED IN-SITU CHEMICAL OXIDATION” (VERUTEK TECHNOLOGIES, INC., priority 2007, published 2010).

Legend:
[1] = pure compound in water; cited from earlier work
[2] = Chlorinated DNAPL dissolution in control sample without cosolvent-surfactant (equilibrium solubility in water in presence of the DNAPL); details: 25 °C, thermodynamic from solid
Experimental: In order to test the treatment of chlorinated compounds, a chlorinated solvent DNAPL was obtained from a site consisting of chlorinated solvents and chlorinated semi-volatile compounds. […]
The data collected under the experimentation conditions presented in Table 2 were obtained at 25° C. with 60 rpm shaker table mixing for 48 hours. After the shaker was shut off, the samples sat quietly for 5 minutes before the supernatant was analyzed. DNAPLmax represents the maximum concentration of DNAPL that may dissolve, given the mass of DNAPL and the volume of water.
Samples from experiment number 1, 3, 5, 7, and 8 (control) were analyzed. Additionally, measurements of interfacial tension (IFT) were conducted on the samples after the 48-hour period.

## ClC(Cl)=C(Cl)C(Cl)=C(Cl)Cl [Hexachlorobutadiene (HCBD), Hexachlorobutadiene]
[1]
  Pure Compound Aqueous Solubility: 0.005 µg/mL

## ClC(Cl)=C(Cl)Cl [Tetrachloroethene (PCE), Tetrachloroethene]
[2]
  solubility at 48 h: 140 µg/mL
[1]
  Pure Compound Aqueous Solubility: 800 µg/mL

## ClC(Cl)(Cl)C(Cl)(Cl)Cl [Hexachloroethane (HCE), Hexachloroethane]
[1]
  Pure Compound Aqueous Solubility: 50 µg/mL

## Clc1c(Cl)c(Cl)c2c(Cl)c(Cl)c(Cl)c(Cl)c2c1Cl [Octachloronaphthalene (OCN), Octachloronaphthalene]
[1]
  Pure Compound Aqueous Solubility: insoluble
